Measurements taken from patent publication US20100048544A1, “PYRROLO (3, 2, 1-IJ) QUINOLINE-4-ONE-DERIVATIVES FOR TREATING TUBERCULOSIS” (priority 2007, published 2010).

These compounds were tested on Mycobacterium tuberculosis H37Rv (assay: Mycobacterium tuberculosis H37Rv inhibition assay (MIC, microtiter plate, alamar blue)). Details: ATCC 25618 / H37Rv, H37Rv strain (ATCC25618), Middlebrook 7H9, 37° C. six days, alamar blue fluorescence after 48 hours, read-out: MIC value.
Assay type: cell-based

| Compound | MIC |
| --- | --- |
| O=c1ccc2ccc(F)c3c2n1CC3CN1CCC(NCc2cc3c(cn2)OCCO3)CC1 (centres unmarked) [Example 2, 1-({4-[(2,3-Dihydro[1,4]dioxino[2,3-c]pyridin-7-ylmethyl)amino]-1-piperidinyl}methyl)-9-fluoro-1,2-dihydro-4H-pyrrolo[3,2,1-ij]quinolin-4-one] | ≤ 4 µg/mL |
| O=c1ccc2ccc(F)c3c2n1CC3(O)CN1CCC(NCc2cc3c(nn2)OCCS3)CC1 (centres unmarked) [Example 29, 1-({4-[(6,7-Dihydro[1,4]oxathiino[2,3-c]pyridazin-3-ylmethyl)amino]-1-piperidinyl}methyl)-9-fluoro-1-hydroxy-1,2-dihydro-4H-pyrrolo[3,2,1-ij]quinolin-4-one] | ≤ 4 µg/mL |
| O=C1COc2cc(Cl)c(CNC[C@H]3CCN(CC4Cn5c(=O)ccc6ccc(F)c4c65)C3)nc2N1 (stereo partly drawn) [Example 33, 1-{[(3R)-3-({[(7-Chloro-3-oxo-3,4-dihydro-2H-pyrido [3,2-b][1,4]oxazin-6-yl)methyl]amino}methyl)-1-pyrrolidinyl]methyl}-9-fluoro-1,2-dihydro-4H-pyrrolo[3,2,1-ij]quinolin-4-one] | ≤ 4 µg/mL |
| O=C1COc2ccc(CNC[C@H]3CCN(CC4Cn5c(=O)ccc6ccc(F)c4c65)C3)nc2N1 (stereo partly drawn) [Example 35, 9-Fluoro-1-{[(3R)-3-({[(3-oxo-3,4-dihydro-2H-pyrido[3,2-b][1,4]oxazin-6-yl)methyl]amino}methyl)-1-pyrrolidinyl]methyl}-1,2-dihydro-4H-pyrrolo[3,2,1-ij]quinolin-4-one] | ≤ 4 µg/mL |
| O=c1ccc2ccc(F)c3c2n1CC3CN1CCC(NCc2ccc3c(c2)C(O)CCC3)CC1 (centres unmarked) [Example 75, 9-fluoro-1-[(4-{[(8-hydroxy-5,6,7,8-tetrahydro-2-naphthalenyl)methyl]amino}-1-piperidinyl)methyl]-1,2-dihydro-4H-pyrrolo[3,2,1-ij]quinolin-4-one] | ≤ 4 µg/mL |

Same assay, conditions: ATCC 25618 / H37Rv, read-out: MIC value, H37Rv strain (ATCC25618), Middlebrook 7H9, 37° C. six days, alamar blue fluorescence after 48 hours

| Compound | MIC |
| --- | --- |
| O=c1ccc2ccc(F)c3c2n1CC3CN1CC[C@H](NCc2cc3c(cn2)OCC3)[C@H](O)C1 (stereo partly drawn) [Example 8, 1-({(3R,4S)-4-[(2,3-Dihydrofuro[2,3-c]pyridin-5-ylmethyl)amino]-3-hydroxy-1-piperidinyl}methyl)-9-fluoro-1,2-dihydro-4H-pyrrolo [3,2,1-ij]quinolin-4-one] | ≤ 4 µg/mL |
| O=c1ccc2ccc(F)c3c2n1CC3CN1CCC(NCc2cnc3c(c2)OCCO3)CC1 (centres unmarked) [Example 22, 1-({4-[(2,3-dihydro[1,4]dioxino[2,3-b]pyridin-7-ylmethyl)amino]-1-piperidinyl}methyl)-9-fluoro-1,2-dihydro-4H-pyrrolo[3,2,1-ij]quinolin-4-one] | ≤ 4 µg/mL |
| O=c1ccc2ccc(F)c3c2n1C[C@H]3CN1CCC(NCc2ccc3c(c2F)OCCO3)CC1 [Example 80, (1R)-9-fluoro-1-[(4-{[(5-fluoro-2,3-dihydro-1,4-benzodioxin-6-yl)methyl]amino}-1-piperidinyl)methyl]-1,2-dihydro-4H-pyrrolo[3,2,1-ij]quinolin-4-one] | ≤ 4 µg/mL |
